For orientation: inhibition means the change of the read-out against control, counted positive when it falls. Usually IC50 stands for the concentration that inhibits the measured activity by half.

From ChEMBL document CHEMBL4359854, “Repurposing mosloflavone/5,6,7-trimethoxyflavone-resveratrol hybrids: Discovery of novel p38-α MAPK inhibitors as potent interceptors of macrophage-dependent production of proinflammatory mediators” (Eur J Med Chem, 2019) come the findings set out here.

The source made the active and inactive calls. The rule behind the calls is not given here.

Data set [1] has as its system RAW264.7. The data set can be described thus: Effect on NO production in mouse RAW264.7 cells assessed as inhibition of NO production at 2 to 5 uM incubated for 24 hrs by Griess reagent-based assay. The note with it: raw264.7, 24 h. The format is cell-based.
The test system of data set [2] is RAW264.7. Description: Anti-inflammatory activity in mouse RAW264.7 cells assessed as inhibition of LPS-induced NO production at 0.5 uM preincubated for 1 hr followed by LPS addition and measured after 24 hrs by Griess reagent-based assay. The format is functional, cell-based. For orientation: Griess reagent forms a coloured azo dye with nitrite.
Data set [3] can be described thus: Cytotoxicity against LPS-induced mouse RAW264.7 cells assessed as cell viability at 1 uM incubated for 24 hrs by MTT assay relative to control. The conditions noted are these: LPS-induced RAW264.7 cells, read-out: Activity. The format is cell-based. Background: Tetrazolium dyes change colour on reduction, which living cells bring about.
In data set [4] the test system is RAW264.7. Description: Anti-inflammatory activity in mouse RAW264.7 cells assessed as inhibition of LPS-induced NO production at 1 uM preincubated for 1 hr followed by LPS addition and measured after 24 hrs by Griess reagent-based assay relative to control. The format is functional.
Data set [5] has as its system RAW264.7. The data set can be described thus: Anti-inflammatory activity in mouse RAW264.7 cells assessed as inhibition of LPS-induced NO production preincubated for 1 hr followed by LPS addition and measured after 24 hrs by Griess reagent-based assay. The format is functional, cell-based.
The test system of data set [6] is RAW264.7. Description: Anti-inflammatory activity in mouse RAW264.7 cells assessed as inhibition of LPS-induced PGE2 production at 1 uM preincubated for 1 hr followed by LPS addition and measured after 24 hrs by EIA relative to control. Type of data set: functional.
Data set [7] has as its system RAW264.7. Description: Anti-inflammatory activity in mouse RAW264.7 cells assessed as inhibition of LPS-induced PGE2 production preincubated for 1 hr followed by LPS addition and measured after 24 hrs by EIA. The format is functional, cell-based.
Data set [8] relates to RAW264.7. The data set can be described thus: Anti-inflammatory activity in mouse RAW264.7 cells assessed as inhibition of LPS-induced PGE2 production at 0.2 uM preincubated for 1 hr followed by LPS addition and measured after 24 hrs by EIA. The format is functional, cell-based.
In data set [9] the test system is RAW264.7. The data set can be described thus: Anti-inflammatory activity in mouse RAW264.7 cells assessed as inhibition of LPS-induced IL-6 production at 1 uM preincubated for 1 hr followed by LPS addition and measured after 24 hrs by EIA relative to control. Type of data set: functional.
The subject of data set [10] is RAW264.7. The data set can be described thus: Anti-inflammatory activity in mouse RAW264.7 cells assessed as inhibition of LPS-induced IL-6 production preincubated for 1 hr followed by LPS addition and measured after 24 hrs by EIA. Type of data set: functional, cell-based.
Data set [11] concerns RAW264.7. The data set can be described thus: Anti-inflammatory activity in mouse RAW264.7 cells assessed as inhibition of LPS-induced IL-6 production at 1 to 5 uM preincubated for 1 hr followed by LPS addition and measured after 24 hrs by EIA. Type of data set: functional, cell-based.
Data set [12] concerns the target Mitogen-activated protein kinase 14 (Mus musculus) (UniProt P47811). The data set can be described thus: Inhibition of p38alpha MAPK in LPS-stimulated mouse RAW264.7 cells assessed as reduction in p38alpha MAPK phosphorylation at 4 uM incubated for 60 mins by Western blot analysis. The format is cell-based. In general terms: Immunoblotting shows a protein as a band on a membrane.

Data set [13] concerns RAW264.7. Description: Effect on IL-6 production in mouse RAW264.7 cells assessed as increase in IL-6 production up to 5 uM measured after 1 hr by EIA. Type of data set: ADME, cell-based. The note with it: raw264.7, 1 h.
For data set [14], the system named is RAW264.7. Description: Anti-inflammatory activity in mouse RAW264.7 cells assessed as inhibition of LPS-induced TNFalpha production at 1 uM preincubated for 1 hr followed by LPS addition and measured after 24 hrs by EIA relative to control. The format is functional.
Data set [15] has as its system RAW264.7. The data set can be described thus: Anti-inflammatory activity in mouse RAW264.7 cells assessed as inhibition of LPS-induced TNFalpha production preincubated for 1 hr followed by LPS addition and measured after 24 hrs by EIA. Type of data set: functional, cell-based.
For data set [16], the system named is RAW264.7. Description: Anti-inflammatory activity in mouse RAW264.7 cells assessed as inhibition of LPS-induced TNFalpha production at 0.5 uM preincubated for 1 hr followed by LPS addition and measured after 24 hrs by EIA. Type of data set: functional, cell-based.
For data set [17], the system named is RAW264.7. The data set can be described thus: Effect on TNF-alpha production in mouse RAW264.7 cells assessed as increase in TNFalpha production at up to 5 uM measured after 1 hr by EIA. Type of data set: ADME, cell-based. The conditions noted are these: raw264.7, 1 h.
For data set [18], the system named is RAW264.7. The data set can be described thus: Anti-inflammatory activity in mouse RAW264.7 cells assessed as inhibition of LPS-induced IL-1beta production at 1 uM preincubated for 1 hr followed by LPS addition and measured after 24 hrs by EIA relative to control. The format is functional.
Data set [19] addresses Mitogen-activated protein kinase 14 (Mus musculus) (UniProt P47811). Description: Inhibition of p38alpha MAPK in LPS-stimulated mouse RAW264.7 cells assessed as reduction in p38alpha MAPK phosphorylation incubated for 60 mins by Western blot analysis. The format is cell-based.
Data set [20] has the same target. Description: Inhibition of p38alpha MAPK in LPS-stimulated mouse RAW264.7 cells assessed as reduction in p38alpha MAPK phosphorylation at 2 uM incubated for 60 mins by Western blot analysis. The format is cell-based.
Data set [21] deals with T1, Mitogen-activated protein kinase 14 (Mus musculus, UniProt P47811). The data set can be described thus: Inhibition of p38alpha MAPK in unstimulated mouse RAW264.7 cells assessed as reduction in p38alpha MAPK phosphorylation at 4 uM incubated for 60 mins by Western blot analysis. The format is cell-based. The note with it: RAW264.7, mouse, 1 h.
The target of data set [22] is T1, Mitogen-activated protein kinase 14. The data set can be described thus: Inhibition of p38alpha MAPK in unstimulated mouse RAW264.7 cells assessed as reduction in p38alpha MAPK phosphorylation at 2 uM incubated for 60 mins by Western blot analysis. The format is cell-based. The conditions noted are these: raw264.7, 1 h.
For data set [23], the system named is RAW264.7. The data set can be described thus: Anti-inflammatory activity in mouse RAW264.7 cells assessed as remaining LPS-induced NO production at 40 uM preincubated for 1 hr followed by LPS addition and measured after 24 hrs by Griess reagent-based assay relative to control. The format is functional.
Data set [24] concerns RAW264.7. Description: Anti-inflammatory activity in mouse RAW264.7 cells assessed as inhibition of LPS-induced PGE2 production at 40 nM preincubated for 1 hr followed by LPS addition and measured after 24 hrs by EIA. The format is functional, cell-based.
For data set [25], the target named is Mitogen-activated protein kinase 14 (Mus musculus) (UniProt P47811). Description: Inhibition of p38alpha MAPK in LPS-stimulated mouse RAW264.7 cells assessed as reduction in MK2 phosphorylation at 5 uM incubated for 120 mins by Western blot analysis. The format is cell-based.
Data set [26] has as its system RAW264.7. Description: Anti-inflammatory activity in mouse RAW264.7 cells assessed as inhibition of LPS-induced IL-6 production at 0.5 uM preincubated for 1 hr followed by LPS addition and measured after 24 hrs by EIA. Type of data set: functional, cell-based.
Data set [27] has as its target Mitogen-activated protein kinase 14 (Mus musculus) (UniProt P47811). The data set can be described thus: Inhibition of p38alpha MAPK in LPS-stimulated mouse RAW264.7 cells assessed as reduction in p38alpha MAPK phosphorylation at 5 uM incubated for 60 mins by Western blot analysis. Type of data set: cell-based.
The target is the same in data set [28]. Description: Inhibition of p38alpha MAPK in LPS-stimulated mouse RAW264.7 cells assessed as reduction in MK2 phosphorylation at 5 uM by Western blot analysis. The note with it: TDE = time-dependent effect. The format is cell-based.
Data set [29] deals with RAW264.7. Description: Anti-inflammatory activity in mouse RAW264.7 cells assessed as inhibition of LPS-induced PGE2 production at 10 nM preincubated for 1 hr followed by LPS addition and measured after 24 hrs by EIA relative to control. Type of data set: functional.

Mitogen-activated protein kinase 14 (Mus musculus), sequence (P47811 whole entry): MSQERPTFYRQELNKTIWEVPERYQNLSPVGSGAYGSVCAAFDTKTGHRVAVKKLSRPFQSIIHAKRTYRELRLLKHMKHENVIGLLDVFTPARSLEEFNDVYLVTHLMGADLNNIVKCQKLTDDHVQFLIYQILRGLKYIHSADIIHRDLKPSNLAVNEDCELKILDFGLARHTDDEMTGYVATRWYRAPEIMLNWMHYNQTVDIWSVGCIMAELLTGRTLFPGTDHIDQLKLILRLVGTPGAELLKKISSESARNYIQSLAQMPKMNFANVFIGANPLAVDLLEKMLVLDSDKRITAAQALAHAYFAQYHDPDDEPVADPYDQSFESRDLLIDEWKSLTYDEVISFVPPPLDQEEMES
T1 sequence (P47811 whole entry): as above

`COc1cc(NC(=O)c2cccc(-c3cc(=O)c4c(O)c(OC)c(OC)cc4o3)c2)cc(OC)c1OC`: the Activity entry in data set [1], in [13] and in data set [17] was “Non-Toxic” throughout. The inhibition result in data set [2], in data set [11], in data set [16] and in data set [20] was “Active” in each case. For the same compound, the viability at 24 h, 1 µM in [3] was 144%. In addition, the inhibition at 1 µM in data set [4] came out at 44.8%; in [6] it was 35.7%; in data set [9], 53.5%; in [14], 29.4%; in data set [18] it was 41%. For the same compound, the IC50 was found to be 2.11 µM in data set [5] and 0.98 µM in data set [7]. For the same compound, the inhibition result in [5] was “Dose-dependent effect”; in [7], “Dose-dependent effect”; in data set [10], “Dose-dependent effect”; in data set [12], 100%; in data set [15], “Dose-dependent effect”; in [19] it was “Dose-dependent effect”. The inhibition entry in data set [8] was “inactive”. For the same compound, in data set [21], the inhibition at 4 µM was 100%. In addition, in data set [22], the “inhibition (INH)” value was “Active”.

For the compound `CC(=N)NCCCC[C@H](N)C(=O)O` [L-NIL], the Activity in [23] is on record as 29 - 35%.

On to `COc1ccccc1C(=O)Nc1cccc(-c2cc(=O)c3c(O)c(OC)c(OC)cc3o2)c1`, for which the viability at 24 h, 1 µM in [3] turned out to be 90.9%. Besides, the inhibition at 1 µM was 2.62% in data set [4]; 82.8% in data set [6]; -9.4% in [9]; -9.74% in data set [14]; 41.3% in data set [18]. Further, the IC50 in data set [7] amounted to 0.31 µM. Moreover, the inhibition entry in [7] is “Dose-dependent effect”. Moreover, the inhibition entry in data set [24] and in [25] was “Active” throughout.

Take `COc1cc(NC(=O)c2cccc(-c3cc(=O)c4c(OC)c(OC)c(OC)cc4o3)c2)cc(OC)c1OC`: the Activity entry in data set [1], in data set [13] and in data set [17] was “Non-Toxic” each time. The inhibition result in data set [2] and in data set [8] was “inactive” throughout. Further, the viability at 24 h, 1 µM in data set [3] worked out at 113%. Further, the inhibition at 1 µM in [4] is 48.3%; in data set [6], 11.2%; in data set [9], 31.9%; in [14], 28.6%; in data set [18], 143%. Besides, the figures for the IC50 in data set [5] and in [7] were 2.75 µM and 3.4 µM, respectively. Also, the inhibition entry in [5], in data set [7], in [10] and in data set [15] was “Dose-dependent effect” each time. In addition, the inhibition entry in data set [26], in data set [11] and in data set [16] was “Active” throughout.

`COc1ccccc1C(=O)Nc1ccc(-c2cc(=O)c3c(OC)c(OC)c(OC)cc3o2)cc1`: in data set [3], the viability at 24 h, 1 µM turned out to be 108%. Besides, the inhibition at 1 µM in data set [4] was 7.04%; in data set [6], 78.8%; in data set [9], -50%; in data set [14], -51.3%; in data set [18], 14.5%. The IC50 in data set [7] was 0.59 µM. Besides, the inhibition entry is “Dose-dependent effect” in data set [7] and “Tde” in data set [28]. The inhibition entry in [24] and in [27] was “Active” throughout.

`CS(=O)(=O)Nc1ccc([N+](=O)[O-])cc1OC1CCCCC1` [NS-398]: in data set [29], the inhibition at 0.01 µM was determined as 58%.
